One series relates to Plasmodium falciparum. Description: Antimalarial activity against chloroquine-resistant Plasmodium falciparum Dd2 at 120 uM after 72 hrs by DAPI stain. It counts as functional.
A further series deals with Staphylococcus. The series can be described thus: Antibacterial activity against Staphylococcus albus epidermis strain at 800 ug/mL after 19 to 20 hrs by agar hole punch diffusion assay. The series is classed as functional, organism-based.
For another series, the system named is Escherichia coli. The series can be described thus: Antibacterial activity against Escherichia coli K-12 after 19 to 20 hrs by agar hole punch diffusion assay. It counts as functional.
A further series has as its system HeLa. Description: Cytotoxicity against human HeLa cells upto 120 uM after 72 hrs by alamar blue assay. The series is classed as functional, cell-based. Background: Alamar Blue is a resazurin reagent that responds to reducing activity.
The next series deals with Saccharomyces cerevisiae. The series can be described thus: Antibacterial activity against Saccharomyces cerevisiae after 19 to 20 hrs by agar hole punch diffusion assay. The series is classed as functional.
The next series has as its system HEK293. The series can be described thus: Cytotoxicity against HEK293 cells upto 120 uM after 72 hrs by alamar blue assay. The series is classed as cell-based. The following applies: human, hek293, 72 h.
Another series has as its system Trypanosoma brucei. The series can be described thus: Antitrypanosomal activity against Trypanosoma brucei BS427 upto 120 uM after 48 hrs by alamar blue assay. The series is classed as functional, organism-based.

Consider one compound from ChEMBL document CHEMBL1151836, “Citronamides A and B, tetrapeptides from the Australian sponge Citronia astra” (J Nat Prod, 2009).

Each structure is given as a SMILES string. Values after ≈ are worked out from the molar mass of the structure shown. Active and inactive are the calls of the source.

Usually MIC stands for the smallest concentration in the dilution series that meets the test's criterion for growth inhibition. A higher MIC goes with a less susceptible organism. With `CC[C@@H](C)[C@@H](NC(=O)[C@@H](NC(=O)[C@H](NC(=O)CCCCC(N)Cc1ccc(OC)cc1)[C@@H](O[C@@H]1O[C@@H](C(=O)O)[C@@H](O)[C@H](OC(N)=O)[C@H]1O)c1c[nH]c(=O)[nH]1)[C@@H](C)CC)C(=O)O` (some centres not stated) [CITRONAMIDE A], the Activity with Plasmodium falciparum is on record as 24%; with HEK293, “Not Active”. Further, the result in the series with Staphylococcus, in the series on HeLa and in the series with Trypanosoma brucei was inactive. Further, the MIC was determined as 80 µg/mL (≈ 92.4 µM) with Escherichia coli and 8 µg/mL (≈ 9.24 µM) against Saccharomyces cerevisiae.
